From US9314474B2, “Formulations of 14-epi-analogues of vitamin D” (HYBRIGENICS, SA, priority 2010, dated 2016)
Like-named read-outs stand apart in the source and are kept apart here. Values belong to the compound of their own block, whether it stands above or below them.

Assays:
[1] = in vivo
Description: Inecalcitol is a synthetic derivative of calcitriol, the natural active metabolite of vitamin D3.

[2] = Maximal tolerated dose in humans; assay type: in vivo, human; details: oral
[3] = in vivo; cited from earlier work
[4] = in vivo; cited from earlier work; remark: listed apart in the source
[5] = rats; cited from earlier work
[6] = humans, previously determined; cited from earlier work
[7] = human volunteers, cited from earlier work
[8] = cynomolgus monkey, in vivo, po
Procedure: Male cynomolgus monkey received a single oral administration of a high dose of inecalcitol (2 mg/kg) in the same volume (5 ml/kg) for each excipient. Blood samples were drawn at the time of administration (To) and 15, 30, 45, 60, 90 minutes, 3, 6, 9 and 24 hours later. Plasma aliquots were prepared on heparinized tubes and unchanged inecalcitol was specifically assayed by HPLC/MS/MS method.

Compound: C[C@H](CC#CC(C)(C)O)[C@H]1CC[C@@H]2/C(=C/C=C3C[C@@H](O)C[C@H](O)C3)CCC[C@@]21C [inecalcitol, 19-nor-9,10-seco-14βH-cholesta-5(Z),7(E)-dien-23-ino-1α,3β,25-triol-23-yne]
calcemic activity [1]: very low calcemic activity | maximal tolerated dose [2]: 4 mg per day | calcemic effects compared with calcitriol [3]: markedly lower calcemic effects

Compound: C=C1/C(=C\C=C2/CCC[C@]3(C)[C@@H]([C@H](C)/C=C/C=C/C(O)(CC)CC)CC[C@@H]23)C[C@@H](O)C[C@@H]1O [seocalcitol]
bioavailability of complex system versus simple solutions in MCT or LCT [4]: without any improvement in bioavailability | bioavailability, LCT- versus MCT-based formulations [5]: no difference was observed

Compound: C=C1/C(=C\C=C2/CCC[C@]3(C)[C@@H]([C@H](C)CCCC(C)(C)O)CC[C@@H]23)C[C@@H](O)C[C@@H]1O [calcitriol, 1,25-dihydroxy-cholecalciferol]
maximal tolerated dose [6]: 45 μg once a week

Compound: elocalcitol
maximal tolerated dose [6]: 150 μg per day

Compound: C=C1CC[C@H](O)C/C1=C/C=C1\CCC[C@]2(C)[C@@H]([C@H](C)CCCC(C)C)CC[C@@H]12 [cholecalciferol]
bioavailability from arachis oil capsules versus MCT capsules ([7]; fasting state): about twice higher | bioavailability from arachis oil capsules versus MCT capsules ([7]; given with a standard meal): no difference was observed

absorption of inecalcitol compared with MCT (in words) [8]: better absorbed | AUC0-24 h (%) ([8]; 2 mg/kg): 132% | Cmax (−fold) ([8]; 2 mg/kg): 3.0 fold | Tmax ([8]; 2 mg/kg): 1.5 h
Compound: Sunflower oil
